Here are results for 30 compounds from patent US11274111B2, “Arginase inhibitors and methods of use” (Merck Sharp & Dohme Corp., priority 2018, dated 2022).

Structures can show the parent of a compound that is named as a salt. Where two headings read alike, the source gives them in different places.

The test has as its target T1, Arginase (Homo sapiens, UniProt P05089).
T1 construct: Arginase protein was recombinantly expressed in Escherichia coli
T1 sequence (P05089 1-322): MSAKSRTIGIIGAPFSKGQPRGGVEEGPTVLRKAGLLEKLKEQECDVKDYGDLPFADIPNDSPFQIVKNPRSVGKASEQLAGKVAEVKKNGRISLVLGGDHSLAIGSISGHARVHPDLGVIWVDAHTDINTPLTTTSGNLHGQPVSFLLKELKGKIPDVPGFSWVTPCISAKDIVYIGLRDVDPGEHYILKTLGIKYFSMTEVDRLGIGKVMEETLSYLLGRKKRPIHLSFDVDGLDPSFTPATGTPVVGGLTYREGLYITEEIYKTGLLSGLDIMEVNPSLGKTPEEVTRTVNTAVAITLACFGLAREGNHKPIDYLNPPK
Nature of the test: Arginase Thioornithine Generating Assay (TOGA). The test is classed as biochemical. As to conditions: for IC50: recombinant arginase 1.88 nM, thioarginine substrate. Here is the method:
Arginase Thioornithine Generating Assay (TOGA)
Compounds were serially diluted in ten 3-fold steps in DMSO starting from 10 mM DMSO stocks. Compound dilutions or DMSO alone were then dispensed from the dilution plate into a Greiner black 384-well assay plate (catalog #781086) using an Echo 555 acoustic liquid handler (Labcyte).
Arginase protein was recombinantly expressed in Escherichia coli. Purified protein was then diluted in assay buffer (50 mM Tris pH 7.5, 50 mM NaCl, 1 mM manganese chloride, 0.05% bovine serum albumin to obtain a final Arginase concentration of 1.88 nM. Arginase solution (20 μL) or buffer alone (20 μL) were dispensed to wells of the assay plate using a BioRAPTR liquid dispenser (Beckman Coulter). Assay plates containing compound and arginase enzyme were incubated at room temperature for 30 minutes. Afterwards, 5 μL of 2.5 mM thioarginine (Cayman Chemicals) in assay buffer were added to each well of the assay plate using a BioRAPTR liquid dispenser. Plates were incubated at room temperature for 60 minutes and reactions were quenched by addition of 15 μL of 200 uM 7-Diethylamine-3-(4-maleimidophenyl)-4-methylcoumarin (Sigma Chemical) in 70% ethanol. Plates were briefly shaken to mix and the fluorescence was measured in an Spectramax plate reader (Molecular Devices) with a 410 nm excitation wavelength and an 490 nm emission wavelength.
Potencies were calculated by […] to the four parameter logistic IC50 equation.

Setting [1] is: Top Dose 10000 nM, read-out: Percent Inhibition at Top Dose.

Regarding `NC1(C(=O)O)CN2CCNC[C@H]2C1CCCB(O)O` (stereo partly drawn) [Example 38a, (8aR)-7-amino-8-(3-boronopropyl)octahydropyrrolo[1,2-a]pyrazine-7-carboxylic acid], the inhibition at 10 µM under setting [1] was 63%. For `NC1(C(=O)O)c2cccnc2CC1CCCB(O)O` (stereo not shown) [Example 39, 5-amino-6-(3-boronopropyl)-6,7-dihydro-5H-cyclopenta[b]pyridine-5-carboxylic acid], the inhibition at 10 µM under setting [1] turned out to be 94.7%. Still for that read-out and setting: in the case of `N=C(N)N1C[C@@H]2C[C@@](N)(C(=O)O)[C@@H](CCCB(O)O)[C@@H]2C1` (single isomer, unassigned) [Example 11a] it was 67.2%; in that of `NCCN1C[C@@H]2C[C@@](N)(C(=O)O)[C@@H](CCCB(O)O)[C@@H]2C1` [Example 9, (3aR,4S,5S,6aR)-5-amino-2-(2-aminoethyl)-4-(3-boronopropyl)octahydrocyclopenta[c]pyrrole-5-carboxylic acid], 98%; in that of `CN(C)[C@@H]1C[C@@H]2C[C@@](N)(C(=O)O)[C@@H](CCCB(O)O)[C@@H]2C1` [Example 50, (1S,2S,3aR,5R,6aR)-2-amino-1-(3-boronopropyl)-5-(dimethylamino)octahydropentalene-2-carboxylic acid], 97.8%. The same measure, in the same setting: in the case of `CN1CC[C@@H]2[C@H]1C[C@@H](CCCB(O)O)C2(N)C(=O)O` (relative stereo) [Example 32, rel-(3aR,5R,6aR)-4-amino-5-(3-boronopropyl)-1-methyloctahydrocyclopenta[b]pyrrole-4-carboxylic acid] it was 97.2%. Same read-out and setting: then `N[C@@]1(C(=O)O)C[C@H]2C(=O)NC[C@H]2[C@@H]1CCCB(O)O` (single isomer, unassigned) [Example 23a], with 86.5%. As for `N[C@@]1(C(=O)O)C[C@H]2C[C@@H](O)C[C@H]2[C@@H]1CCCB(O)O` [Example 44a, (1S,2S,3aS,5R,6aR)-2-amino-1-(3-boronopropyl)-5-hydroxyoctahydropentalene-2-carboxylic acid], the IC50 amounted to 259 nM. Further, the inhibition at 10 µM under setting [1] amounted to 97.1%. As to `N[C@]1(C(=O)O)[C@H](CCCB(O)O)C[C@H]2C[C@H]21` [Example 36b, (1R,2R,3R,5R)-2-amino-3-(3-boronopropyl)bicyclo[3.1.0]hexane-2-carboxylic acid], the inhibition at 10 µM under setting [1] stood at 47.4%.

`N[C@@]1(C(=O)O)C[C@H]2[C@H](F)[C@@H](O)C[C@H]2[C@@H]1CCCB(O)O` [Example 54a, (1S,2S,3aR,4S,5S,6aS)-2-amino-1-(3-boronopropyl)-4-fluoro-5-hydroxyoctahydropentalene-2-carboxylate]: the inhibition at 10 µM under setting [1] turned out to be 101%. On to `CN[C@@H]1C[C@@H]2C[C@@](N)(C(=O)O)[C@@H](CCCB(O)O)[C@@H]2C1` [Example 51a, (1S,2S,3aR,5R,6aR)-2-amino-1-(3-boronopropyl)-5-(methylamino)octahydropentalene-2-carboxylic acid], for which the IC50 is 33 nM. Further, the inhibition at 10 µM under setting [1] stood at 99.6%. As for “(1S,2S,3aR,5S,6aR)-2-amino-1-(3-boronopropyl)-5-(methylamino)octahydropentalene-2-carboxylate [Example 51b]”, the IC50 is 20.5 nM. Where the note is “Top Dose 10000 nM”, the “Percent Inhibition at Top Dose” value is on record as 98.67%. As to `N[C@@]1(C(=O)O)C[C@H]2CNC[C@H]2[C@@H]1CCCB(O)O` [Example 1e, (3aR,4S,5S,6aR)-5-amino-4-(3-boronopropyl)octahydrocyclopenta[c]pyrrole-5-carboxylic acid], the inhibition at 10 µM under setting [1] is 98.9%. On the same count and under the same terms, in the case of `CCN1C[C@@H]2C[C@@](N)(C(=O)O)[C@@H](CCCB(O)O)[C@@H]2C1` [Example 12, (3aR,4S,5S,6aR)-5-amino-4-(3-boronopropyl)-2-ethyloctahydrocyclopenta[c]pyrrole-5-carboxylic acid] it was 85.3%; in that of `N[C@@]1(C(=O)O)C[C@H]2C[C@@H](NCC(F)(F)F)C[C@H]2[C@@H]1CCCB(O)O` [Example 49, (1S,2S,3aR,5R,6aR)-2-amino-1-(3-boronopropyl)-5-((2,2,2-trifluoroethyl)amino)octahydropentalene-2-carboxylic acid], 85.9%.

Take `CC(=O)N1C[C@@H]2CC(N)(C(=O)O)C(CCCB(O)O)[C@@H]2C1` (mixture of isomers) [Example 13a, rac-(3aR,6aR)-2-acetyl-5-amino-4-(3-boronopropyl)octahydrocyclopenta[c]pyrrole-5-carboxylic acid]: the inhibition at 10 µM under setting [1] was found to be 99%. Turning to `CC(C)[C@H](N)C(=O)N[C@H]1C[C@@H]2C[C@@](N)(C(=O)O)[C@@H](CCCB(O)O)[C@@H]2C1` [Example 47, (1S,2S,3aR,5S,6aR)-2-amino-5-((S)-2-amino-3-methylbutanamido)-1-(3-boronopropyl)octahydropentalene-2-carboxylic acid], the IC50 came to 522 nM. Under setting [1], the inhibition at 10 µM amounted to 94.2%. Regarding `C[C@@H]1NC[C@@H]2CC(N)(C(=O)O)[C@@H](CCCB(O)O)C21` (stereo partly drawn) [Example 31b, (3aR,6S,6aR)-5-amino-6-(3-boronopropyl)-1-methyloctahydrocyclopenta[c]pyrrole-5-carboxylic acid, HFBA Salt], under setting [1], the inhibition at 10 µM was 70%. Take `NC(=O)N1CC2CC(N)(C(=O)O)C(CCCB(O)O)C2C1` (single isomer, unassigned) [Example 17a, 5-amino-4-(3-boronopropyl)-2-carbamoyloctahydrocyclopenta[c]pyrrole-5-carboxylic acid]: the inhibition at 10 µM under setting [1] is 90.6%.

`NC1(C(=O)O)CC2(CCCN2)CC1CCCB(O)O` (stereo not drawn) [Example 37a, rel-7-amino-8-(3-boronopropyl)-1-azaspiro[4.4]nonane-7-carboxylic acid]: the inhibition at 10 µM under setting [1] was 98%.

For the compound `NC(=O)CN1CC2CC(N)(C(=O)O)C(CCCB(O)O)C2C1` (stereo not shown) [Example 15, 5-amino-2-(2-amino-2-oxoethyl)-4-(3-boronopropyl)octahydrocyclopenta[c]pyrrole-5-carboxylic acid], the inhibition at 10 µM under setting [1] came to 88.6%. As to `N[C@]1(C(=O)O)[C@H](CCCB(O)O)C[C@H]2NCC[C@H]21` [Example 20b, (3aR,4R,5R,6aR)-4-amino-5-(3-boronopropyl)octahydrocyclopenta[b]pyrrole-4-carboxylic acid], the inhibition at 10 µM (read-out: Percent Inhibition at Top Dose, Top Dose 10000 nM) came to 101%.

Take `CN1C[C@@H]2C[C@@](N)(C(=O)O)[C@@H](CCCB(O)O)[C@@H]2C1` [Example 2, (3aR,4S,5S,6aR)-5-amino-4-(3-boronopropyl)-2-methyloctahydrocyclopenta[c]pyrrole-5-carboxylic acid]: the IC50 is 82.7 nM. For the same compound, the inhibition at 16 µM (Top Dose 16000 nM, read-out: Percent Inhibition at Top Dose) was 82.6%.

Turning to `N[C@@]1(C(=O)O)C[C@H]2CNC[C@H]2[C@@H]1CCCB(O)O` [Example 1a], the inhibition at 100 µM (Top Dose 100000 nM, read-out: Percent Inhibition at Top Dose) came out at 104%. “(1S,2S,3aS,5R,6R,6aR)-2-amino-1-(3-boronopropyl)-6-fluoro-5-hydroxyoctahydropentalene-2-carboxylate [Example 52b]”: the IC50 stood at 37 nM. Further, the “Percent Inhibition at Top Dose” value (Top Dose 10000 nM) is reported as 99.46%. As for `C[C@H](N)C(=O)N[C@H]1C[C@@H]2C[C@@](N)(C(=O)O)[C@@H](CCCB(O)O)[C@@H]2C1` [Example 46, (1S,2S,3aR,5S,6aR)-2-amino-5-((S)-2-aminopropanamido)-1-(3-boronopropyl)octahydropentalene-2-carboxylic acid], the IC50 was 529 nM. Moreover, the inhibition at 10 µM under setting [1] was determined as 96.8%. Taken in the same sequence, the figures for `NCC(=O)N1C[C@@H]2C[C@@](N)(C(=O)O)[C@@H](CCCB(O)O)[C@@H]2C1` [Example 5, (3aR,4S,5S,6aR)-5-amino-4-(3-boronopropyl)-2-glycyloctahydrocyclopenta[c]pyrrole-5-carboxylic acid] were 160 nM and 95.1%. Taken in the same sequence, the figures for `CC(C)[C@H](N)C(=O)N1C[C@@H]2C[C@@](N)(C(=O)O)[C@@H](CCCB(O)O)[C@@H]2C1` [Example 42, (3aR,4S,5S,6aR)-2-(L-valyl)-5-amino-4-(3-boronopropyl)octahydrocyclopenta[c]pyrrole-5-carboxylic acid] were 52 nM and 98%.

For the compound `NC1(C(=O)O)c2cnccc2CC1CCCB(O)O` (stereo not shown) [Example 30, 7-amino-6-(3-boronopropyl)-6,7-dihydro-5H-cyclopenta[c]pyridine-7-carboxylic acid], under setting [1], the inhibition at 10 µM turned out to be 87.3%. As to “(1S,2S,3aR,4S,5R,6aS)-2-amino-1-(3-boronopropyl)-4-fluoro-5-hydroxyoctahydropentalene-2-carboxylate [Example 54b]”, the IC50 is 42.5 nM. The “Percent Inhibition at Top Dose” value (Top Dose 10000 nM) is recorded as 100.1%.
